Experimental data taken from patent publication US6960574B2, “Antagonists of RF-amide neuropeptides” (University of Florida, priority 2002, dated 2005).
Peptide text beside a SMILES is read from it. * marks the point of attachment. Dansyl = CN(C)c1cccc2c(S(=O)(=O)*)cccc12

System: receptor labeled by the radioiodinated analogue of 1 (4, [125I]-YLFQPQRF-NH2); neuropeptide FF receptor
Assay: Competitive radioligand binding against 4 ([125I]Y8F-amide)
Settings: mixture-based positional scanning; difference from averaged radioligand displacement of whole library (0); about 80 a.u. = 10-fold change in Ki

Relative Binding Index (RBI)	Compound
27 a.u.	C[C@@H](O)[C@H](NC(=O)[C@H](CCC(N)=O)NS(=O)(=O)c1cccc2c(N(C)C)cccc12)C(=O)N[C@@H](CCCNC(=N)N)C(N)=O [Dansyl-QTR-amide] (Dansyl-Gln-Thr-Arg-NH2)
17 a.u.	CC(C)[C@H](NC(=O)[C@H](CCC(N)=O)NS(=O)(=O)c1cccc2c(N(C)C)cccc12)C(=O)N[C@@H](CCCNC(=N)N)C(N)=O [Dansyl-QVR-amide] (Dansyl-Gln-Val-Arg-NH2)
30 a.u.	CN(C)c1cccc2c(S(=O)(=O)N[C@@H](CCC(N)=O)C(=O)N[C@@H](Cc3c[nH]c4ccccc34)C(=O)N[C@@H](CCCNC(=N)N)C(N)=O)cccc12 [Dansyl-QWR-amide] (Dansyl-Gln-Trp-Arg-NH2)
20 a.u.	CN(C)c1cccc2c(S(=O)(=O)N[C@@H](CCC(N)=O)C(=O)N[C@@H](Cc3ccc(O)cc3)C(=O)N[C@@H](CCCNC(=N)N)C(N)=O)cccc12 [Dansyl-QYR-amide] (Dansyl-Gln-Tyr-Arg-NH2)
−42 a.u.	C[C@H](NC(=O)[C@H](CCCNC(=N)N)NS(=O)(=O)c1cccc2c(N(C)C)cccc12)C(=O)N[C@@H](CCCNC(=N)N)C(N)=O [Dansyl-RAR-amide] (Dansyl-Arg-Ala-Arg-NH2)
−11 a.u.	CN(C)c1cccc2c(S(=O)(=O)N[C@@H](CCCNC(=N)N)C(=O)N[C@@H](CC(=O)O)C(=O)N[C@@H](CCCNC(=N)N)C(N)=O)cccc12 [Dansyl-RDR-amide] (Dansyl-Arg-Asp-Arg-NH2)
7 a.u.	CN(C)c1cccc2c(S(=O)(=O)N[C@@H](CCCNC(=N)N)C(=O)N[C@@H](CCC(=O)O)C(=O)N[C@@H](CCCNC(=N)N)C(N)=O)cccc12 [Dansyl-RER-amide] (Dansyl-Arg-Glu-Arg-NH2)
5 a.u.	CN(C)c1cccc2c(S(=O)(=O)N[C@@H](CCCNC(=N)N)C(=O)N[C@@H](Cc3ccccc3)C(=O)N[C@@H](CCCNC(=N)N)C(N)=O)cccc12 [Dansyl-RFR-amide] (Dansyl-Arg-Phe-Arg-NH2)
12 a.u.	CN(C)c1cccc2c(S(=O)(=O)N[C@@H](CCCNC(=N)N)C(=O)NCC(=O)N[C@@H](CCCNC(=N)N)C(N)=O)cccc12 [Dansyl-RGR-amide] (Dansyl-Arg-Gly-Arg-NH2)
1 a.u.	CN(C)c1cccc2c(S(=O)(=O)N[C@@H](CCCNC(=N)N)C(=O)N[C@@H](Cc3c[nH]cn3)C(=O)N[C@@H](CCCNC(=N)N)C(N)=O)cccc12 [Dansyl-RHR-amide] (Dansyl-Arg-His-Arg-NH2)
13 a.u.	CC[C@H](C)[C@H](NC(=O)[C@H](CCCNC(=N)N)NS(=O)(=O)c1cccc2c(N(C)C)cccc12)C(=O)N[C@@H](CCCNC(=N)N)C(N)=O [Dansyl-RIR-amide] (Dansyl-Arg-Ile-Arg-NH2)
4 a.u.	CN(C)c1cccc2c(S(=O)(=O)N[C@@H](CCCNC(=N)N)C(=O)N[C@@H](CCCCN)C(=O)N[C@@H](CCCNC(=N)N)C(N)=O)cccc12 [Dansyl-RKR-amide] (Dansyl-Arg-Lys-Arg-NH2)
−2 a.u.	CC(C)C[C@H](NC(=O)[C@H](CCCNC(=N)N)NS(=O)(=O)c1cccc2c(N(C)C)cccc12)C(=O)N[C@@H](CCCNC(=N)N)C(N)=O [Dansyl-RLR-amide]
7 a.u.	CSCC[C@H](NC(=O)[C@H](CCCNC(=N)N)NS(=O)(=O)c1cccc2c(N(C)C)cccc12)C(=O)N[C@@H](CCCNC(=N)N)C(N)=O [Dansyl-RMR-amide] (Dansyl-Arg-Met-Arg-NH2)
8 a.u.	CN(C)c1cccc2c(S(=O)(=O)N[C@@H](CCCNC(=N)N)C(=O)N[C@@H](CC(N)=O)C(=O)N[C@@H](CCCNC(=N)N)C(N)=O)cccc12 [Dansyl-RNR-amide] (Dansyl-Arg-Asn-Arg-NH2)
10 a.u.	CN(C)c1cccc2c(S(=O)(=O)N[C@@H](CCCNC(=N)N)C(=O)N3CCC[C@H]3C(=O)N[C@@H](CCCNC(=N)N)C(N)=O)cccc12 [Dansyl-RPR-amide] (Dansyl-Arg-Pro-Arg-NH2)
